PubChem BioAssay AID1845211 (Molecular Pharmacology Branch, DTP, NCI, 2023)
Where “and” joins values, the source holds several entries; their conditions need not be identical. Equal values may be shown once.

System: NCI-H322M multicellular tumor spheroids, viability (% test/control)
Test: Anticancer human tumor NCI-H322M cell line growth inhibition;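 on viability, T/C: spheroids exposed to compound for seven days before readout; 100% = DMSO vehicle control wells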
Settings: for viability, T/C: stronger effect = lower value
Procedure, shortened: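 Single agents and combinations were tested on spheroids built from tumor cells plus HUVEC and hMSC, at half-log dilutions starting at or near clinical Cmax, else 10 microM; final DMSO 0.25% (v/v).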

`CC1COCCN1c1cc(-c2ccnn2C)c2ccnc(-c3ccn[nH]3)c2n1` (configuration not stated) + Cn1nnc2c(C(N)=O)ncn2c1=O was tested, and the IC50 (curve of first compound, second compound 1 µM) was 128 nM, the IC50 (curve of first compound, second compound 3.16 µM) was 156 nM and the IC50 (curve of first compound, second compound 10 µM) was 80 nM. For the same compound, the IC50 (curve of first compound, second compound 31.6 µM) was under 31.6 nM, the IC50 (curve of first compound, second compound 100 µM) was under 31.6 nM and the viability, T/C (second compound 1 µM, first compound 0.0316 µM) was 66.3%. For the same compound, the viability, T/C (second compound 1 µM, first compound 0.1 µM) was 54.4%, the viability, T/C (second compound 1 µM, first compound 0.316 µM) was 43.5% and the viability, T/C (second compound 1 µM, first compound 1 µM) was 37.4%. For the same compound, the viability, T/C (second compound 1 µM, first compound 3.16 µM) was 41.5%, the viability, T/C (second compound 1 µM, first compound 10 µM) was 48.5% and the viability, T/C (second compound 3.16 µM, first compound 0.0316 µM) was 63%. It also gave a viability, T/C (second compound 3.16 µM, first compound 0.1 µM) of 55.1%, a viability, T/C (second compound 3.16 µM, first compound 0.316 µM) of 42.3% and a viability, T/C (second compound 3.16 µM, first compound 1 µM) of 34.1%. The viability, T/C (second compound 3.16 µM, first compound 3.16 µM) was 37.7%, the viability, T/C (second compound 3.16 µM, first compound 10 µM) was 40.8% and the viability, T/C (second compound 10 µM, first compound 0.0316 µM) was 72.2%. The viability, T/C (second compound 10 µM, first compound 0.1 µM) was 44.5%, the viability, T/C (second compound 10 µM, first compound 0.316 µM) was 45.4% and the viability, T/C (second compound 10 µM, first compound 1 µM) was 37.3%. The viability, T/C (second compound 10 µM, first compound 3.16 µM) was 40.6%, the viability, T/C (second compound 10 µM, first compound 10 µM) was 50% and the viability, T/C (second compound 31.6 µM, first compound 0.0316 µM) was 56.1%. The viability, T/C (second compound 31.6 µM, first compound 0.1 µM) was 43%, the viability, T/C (second compound 31.6 µM, first compound 0.316 µM) was 37.1% and the viability, T/C (second compound 31.6 µM, first compound 1 µM) was 36.6%. For the same compound, the viability, T/C (second compound 31.6 µM, first compound 3.16 µM) was 35.9%, the viability, T/C (second compound 31.6 µM, first compound 10 µM) was 41.4% and the viability, T/C (second compound 100 µM, first compound 0.0316 µM) was 41.1%. The viability, T/C (second compound 100 µM, first compound 0.1 µM) was 34.8%, the viability, T/C (second compound 100 µM, first compound 0.316 µM) was 31.7% and the viability, T/C (second compound 100 µM, first compound 1 µM) was 32%. It also gave a viability, T/C (second compound 100 µM, first compound 3.16 µM) of 35.4% and a viability, T/C (second compound 100 µM, first compound 10 µM) of 40.6%.

Work on `CC(C)n1c(=O)n(C)c2cnc3cc(F)c(-c4ccc(OCCCN5CCCCC5)nc4)cc3c21` + CC[C@@]1(O)C(=O)OCc2c1cc1n(c2=O)Cc2cc3c(CN(C)C)c(O)ccc3nc2-1 yielded an IC50 (curve of first compound, second compound 0.003 µM) of over 10000 nM, an IC50 (curve of first compound, second compound 0.00949 µM) of over 10000 nM and an IC50 (curve of first compound, second compound 0.03 µM) of over 10000 nM. It also gave an IC50 (curve of first compound, second compound 0.0949 µM) of over 10000 nM, an IC50 (curve of first compound, second compound 0.3 µM) of over 10000 nM and a viability, T/C (second compound 0.003 µM, first compound 0.0316 µM) of 73.3%. For the same compound, the viability, T/C (second compound 0.003 µM, first compound 0.1 µM) was 81.4%, the viability, T/C (second compound 0.003 µM, first compound 0.316 µM) was 80% and the viability, T/C (second compound 0.003 µM, first compound 1 µM) was 75.9%. For the same compound, the viability, T/C (second compound 0.003 µM, first compound 3.16 µM) was 77.4%, the viability, T/C (second compound 0.003 µM, first compound 10 µM) was 73.2% and the viability, T/C (second compound 0.00949 µM, first compound 0.0316 µM) was 73.2%. The viability, T/C (second compound 0.00949 µM, first compound 0.1 µM) was 72.8%, the viability, T/C (second compound 0.00949 µM, first compound 0.316 µM) was 77.3% and the viability, T/C (second compound 0.00949 µM, first compound 1 µM) was 75.3%. For the same compound, the viability, T/C (second compound 0.00949 µM, first compound 3.16 µM) was 85.1%, the viability, T/C (second compound 0.00949 µM, first compound 10 µM) was 71.4% and the viability, T/C (second compound 0.03 µM, first compound 0.0316 µM) was 67.2%. It also gave a viability, T/C (second compound 0.03 µM, first compound 0.1 µM) of 73.8%, a viability, T/C (second compound 0.03 µM, first compound 0.316 µM) of 65.3% and a viability, T/C (second compound 0.03 µM, first compound 1 µM) of 72.5%. It also gave a viability, T/C (second compound 0.03 µM, first compound 3.16 µM) of 73%, a viability, T/C (second compound 0.03 µM, first compound 10 µM) of 70.2% and a viability, T/C (second compound 0.0949 µM, first compound 0.0316 µM) of 58.8%. The viability, T/C (second compound 0.0949 µM, first compound 0.1 µM) was 56.5%, the viability, T/C (second compound 0.0949 µM, first compound 0.316 µM) was 69.3% and the viability, T/C (second compound 0.0949 µM, first compound 1 µM) was 65.2%. For the same compound, the viability, T/C (second compound 0.0949 µM, first compound 3.16 µM) was 67.2%, the viability, T/C (second compound 0.0949 µM, first compound 10 µM) was 68.6% and the viability, T/C (second compound 0.3 µM, first compound 0.0316 µM) was 53.3%. It also gave a viability, T/C (second compound 0.3 µM, first compound 0.1 µM) of 50.3%, a viability, T/C (second compound 0.3 µM, first compound 0.316 µM) of 54.7% and a viability, T/C (second compound 0.3 µM, first compound 1 µM) of 62.6%. The viability, T/C (second compound 0.3 µM, first compound 3.16 µM) was 61.6% and the viability, T/C (second compound 0.3 µM, first compound 10 µM) was 55%.

In the case of `O=C(c1cc(Cc2n[nH]c(=O)c3ccccc23)ccc1F)N1CCN(C(=O)C2CC2)CC1`, the viability, T/C (compound 0.0949 µM) is reported as 107% and 88% and 75.1%, the viability, T/C (compound 0.3 µM) is reported as 98.5% and 83.7% and 107% and the viability, T/C (compound 0.949 µM) is reported as 118% and 98.6% and 101%. The viability, T/C (compound 3 µM) was 97.2% and 80.6% and 97.6%, the viability, T/C (compound 9.49 µM) was 97% and 89.6% and 92.4% and the viability, T/C (compound 30 µM) was 103% and 87% and 104%. For the same compound, the IC50 (curve of compound) was over 30000 nM.
